Source: US20250145592A1 (NICO Therapeutics, Inc., priority 2022, published 2025)
Like-named read-outs stand apart in the source and are kept apart here.

Test system: IL-1β secretion in THP-1 cells (NLRP3)
Assay: IL-1β secretion assay in PMA-differentiated THP-1 cells stimulated with LPS and nigericin (ELISA readout)
Type: cell-based
Conditions: IL-1β ELISA
Method: Compounds as provided herein were tested in the following assay. Cell culture medium employed contained RPMI 1640 medium (89%), FBS (10%), Pen/Strep (1%), and 2-mercaptoethanol (0.05 mM). Freezing medium was made up of 90% FBS and 10% DMSO. THP-1 cells were removed from the liquid nitrogen and placed into a 37° C. water bath to thaw, until signs of ice dissipated. The cells were then added to 9 mL of warm cell culture medium and centrifuged for 5 minutes at 1000 rpm. The supernatant was discarded, and the cells were resuspended in new cell culture medium. THP-1 cells were then split and cultured in the cell culture medium, being passaged every 2-3 days with the cell density will be maintained between 5×10^5 and 1.5×10^6 viable cells/mL.
To freeze, cells were resuspended with fresh freezing medium, adjusting the cell density to 5×10^6 cells/mL. The cell suspension was partitioned into 1 mL aliquots per vial, and the vials were transferred to a −80° C. freezer. After one day at −80° C., the cell vials were transferred to liquid nitrogen freezer for storage.
PMA was dissolved in DMSO to make a stock solution at 5 mg/ml and stored in 10 μl aliquots at −20° C. for single use. PMA is added to normal growth medium. LPS was diluted with 1 mL of water solution to provide a 1 mg/mL stock solution and stored in 15 μl aliquots at −20° C. for single use. Nigericin is diluted in ice cold 100% ethanol to 5 mg/ml (6.7 mM) and stored in 75 μL aliquots at −20° C. for single use. Serum-free media contains RPMI 1640 medium (99%), Pen/Strep (1%), and 2-mercaptoethanol (0.05 mM). The two control conditions used to qualify and normalize test compound dose-response curves were as follows: High Control=25 ng/mL LPS, […], 0.5% DMSO, Low Control=25 ng/mL, LPS, 0.5% DMSO.
THP-1 cells were diluted to provide a suspension at a concentration of 1.0×10^6 cells/mL with the total volume of suspension required to enable the desired number of assay plates. The growth media was supplemented with PMA (5 ng/mL final concentration) and the cells were incubated at 37° C. under a humidified atmosphere of 5% CO2 for 40 h.
All media was carefully aspirated from each culture flask. The cells were washed carefully with 1×DPBS. The cells were then briefly digested with trypsin LE for 5 minutes at 23° C. and immediately resuspended in cell growth media. After resuspension, the cells were centrifuged at 1000 rpm for 3 minutes and the supernatant was discarded. The cells were resuspended in DPBS and once again centrifuged at 1000 rpm for 5 minutes. The supernatant was discarded and the cell pellet was resuspended in serum-free media supplemented with LPS (25 ng/mL final concentration) to enable the distribution of 30K THP-1 cells within 45 μL of media into each well of 384-well PDL-coated plates. The 384-well plates were then incubated at 37° C. under a humidified atmosphere of 5% CO2 for 2 h. Following this period, test compounds were dispensed by Tecan across the desired concentration range with all wells normalized to a final 0.5% DMSO concentration. The plates were then then incubated at 37° C. under a humidified atmosphere of 5% CO2 for 1 h. Following this period, 5 μL of the 5 mg/mL nigericin stock solution was added to each of the appropriate wells and plates were centrifuged at 1000 rpm for 30 seconds. The plates were the immediately reintroduced to the incubator at 37° C. under a humidified atmosphere of 5% CO2 for 2 h. After this time, 35 μL/well of supernatant was collected and transferred into v-bottom plate and centrifuged at 1000 rpm for 1 minute. These supernatant aliquots were analyzed using an IL-Iβ detection kit as described below. If needed, the test samples could be snap frozen and stored at −80° C. until analyzed.
To prepare each ELISA plate, capture antibody (mAb Mt175) was diluted with PBS to a final concentration of […] and then 20 µL of this solution was added to each well of the ELISA plate.
Each plate was allowed to incubate overnight at 4° C. […]

[1] = Homo sapiens, THP-1, Table 3, LPS 25 ng/mL + nigericin, read-out: Activity (IC50 class)
[2] = Homo sapiens, THP-1, Table 4, LPS 25 ng/mL + nigericin, read-out: Activity (IC50)
[3] = Table 4, LPS 25 ng/mL + nigericin, read-out: Activity (IC50)
[4] = Table 3, LPS 25 ng/mL + nigericin, read-out: Activity (IC50 class)

| IC50 [1] | IC50 [2] | IC50 [3] | IC50 [4] | SMILES |
| --- | --- | --- | --- | --- |
| < 1000 nM | 790 nM | – | – | CC[C@H]1C[C@@H]1Oc1nn(CC(=O)Nc2ncc(F)cn2)c(=O)c2ccc(Br)cc12 (relative stereo) [Example 51, 2-[6-bromo-4-[trans-2-ethylcyclopropyl]oxy-1-oxophthalazin-2-yl]-N-(5-fluoropyrimidin-2-yl)acetamide] |
| < 1000 nM | – | 202 nM | – | C[C@@H]1CC1Oc1nn(CC(=O)Nc2ncc(F)cn2)c(=O)c2ccc(Br)cc12 (single isomer, unassigned) [Example 2, 2-[6-bromo-4-[2-trans-methylcyclopropyl]oxy-1-oxophthalazin-2-yl]-N-(5-fluoropyrimidin-2-yl)acetamide] |
| – | – | 35 nM | < 1000 nM | C[C@@H]1CC1Oc1nn(CC(=O)Nc2ncc(F)cn2)c(=O)c2ccc(Br)cc12 (single isomer, unassigned) [Example 3, 2-[6-bromo-4-[2-trans-methylcyclopropyl]oxy-1-oxophthalazin-2-yl]-N-(5-fluoropyrimidin-2-yl)acetamide] |
| < 1000 nM | – | 21 nM | – | O=C(Cn1nc(OC2CC3(C2)CC3(F)F)c2cc(Br)ccc2c1=O)Nc1ncc(F)cn1 (single isomer, unassigned) [Example 5, 2-[6-bromo-4-(2,2-difluorospiro[2.3]hexan-5-yl)oxy-1-oxophthalazin-2-yl]-N-(5-fluoropyrimidin-2-yl)acetamide] |
| – | – | 308 nM | < 1000 nM | O=C(Cn1nc(OC2CC3(C2)CC3(F)F)c2cc(Br)ccc2c1=O)Nc1ncc(F)cn1 (single isomer, unassigned) [Example 6, 2-[6-bromo-4-(2,2-difluorospiro[2.3]hexan-5-yl)oxy-1-oxophthalazin-2-yl]-N-(5-fluoropyrimidin-2-yl)acetamide] |
| < 1000 nM | – | 84 nM | – | C[C@@H]1CC1Oc1nn(CC(=O)N[C@H]2C[C@@](C)(O)C2)c(=O)c2ccc(Br)cc12 (single isomer, unassigned) [Example 7, 2-[6-bromo-4-[trans-2-methylcyclopropyl]oxy-1-oxophthalazin-2-yl]-N-(cis-3-hydroxy-3-methylcyclobutyl)acetamide] |
| – | – | 728 nM | < 1000 nM | C[C@@H]1CC1Oc1nn(CC(=O)N[C@H]2C[C@@](C)(O)C2)c(=O)c2ccc(Br)cc12 (single isomer, unassigned) [Example 8, 2-[6-bromo-4-[trans-2-methylcyclopropyl]oxy-1-oxophthalazin-2-yl]-N-(cis-3-hydroxy-3-methylcyclobutyl)acetamide] |
| < 1000 nM | – | 554 nM | – | Cc1cnc(NC(=O)Cn2nc(OC3C[C@H]3C)c3cc(Br)ccc3c2=O)nc1 (single isomer, unassigned) [Example 9, 2-[6-bromo-4-[trans-2-methylcyclopropyl]oxy-1-oxophthalazin-2-yl]-N-(5-methylpyrimidin-2-yl)acetamide] |
| – | – | 141 nM | < 1000 nM | Cc1cnc(NC(=O)Cn2nc(OC3C[C@H]3C)c3cc(Br)ccc3c2=O)nc1 (single isomer, unassigned) [Example 10, 2-[6-bromo-4-[trans-2-methylcyclopropyl]oxy-1-oxophthalazin-2-yl]-N-(5-methylpyrimidin-2-yl)acetamide] |
| < 1000 nM | – | 34 nM | – | O=C(Cn1nc(OC2CC3(C2)CC3(F)F)c2cc(C3(F)CC3)ccc2c1=O)Nc1ncc(F)cn1 (single isomer, unassigned) [Example 13, 2-[4-(2,2-difluorospiro[2.3]hexan-5-yl)oxy-6-(1-fluorocyclopropyl)-1-oxophthalazin-2-yl]-N-(5-fluoropyrimidin-2-yl)acetamide] |
| – | – | 314 nM | < 1000 nM | O=C(Cn1nc(OC2CC3(C2)CC3(F)F)c2cc(C3(F)CC3)ccc2c1=O)Nc1ncc(F)cn1 (single isomer, unassigned) [Example 14, 2-[4-(2,2-difluorospiro[2.3]hexan-5-yl)oxy-6-(1-fluorocyclopropyl)-1-oxophthalazin-2-yl]-N-(5-fluoropyrimidin-2-yl)acetamide] |
| < 1000 nM | – | 70 nM | – | O=C(Cn1nc(OC2CC2(F)F)c2cc(Br)ccc2c1=O)Nc1ncc(F)cn1 (single isomer, unassigned) [Example 17, 2-[6-bromo-4-[2,2-difluorocyclopropyl]oxy-1-oxophthalazin-2-yl]-N-(5-fluoropyrimidin-2-yl)acetamide] |
| – | – | 1510 nM | 1000 to 10000 nM | O=C(Cn1nc(OC2CC2(F)F)c2cc(Br)ccc2c1=O)Nc1ncc(F)cn1 (single isomer, unassigned) [Example 18, 2-[6-bromo-4-[2,2-difluorocyclopropyl]oxy-1-oxophthalazin-2-yl]-N-(5-fluoropyrimidin-2-yl)acetamide] |
| < 1000 nM | – | 179 nM | – | C[C@]1(O)C[C@@H](NC(=O)Cn2nc(OC3CC4(C3)CC4(F)F)c3cc(Br)ccc3c2=O)C1 (single isomer, unassigned) [Example 19, 2-[6-bromo-4-(2,2-difluorospiro[2.3]hexan-5-yl)oxy-1-oxophthalazin-2-yl]-N-(cis-3-hydroxy-3-methylcyclobutyl)acetamide] |
| – | – | 3400 nM | 1000 to 10000 nM | C[C@]1(O)C[C@@H](NC(=O)Cn2nc(OC3CC4(C3)CC4(F)F)c3cc(Br)ccc3c2=O)C1 (single isomer, unassigned) [Example 20, 2-[6-bromo-4-(2,2-difluorospiro[2.3]hexan-5-yl)oxy-1-oxophthalazin-2-yl]-N-(cis-3-hydroxy-3-methylcyclobutyl)acetamide] |
| < 1000 nM | – | 31 nM | – | Cc1cnc(NC(=O)Cn2nc(OC3CC4(C3)CC4(F)F)c3cc(Br)ccc3c2=O)nc1 (single isomer, unassigned) [Example 21, 2-[6-bromo-4-(2,2-difluorospiro[2.3]hexan-5-yl)oxy-1-oxophthalazin-2-yl]-N-(5-methylpyrimidin-2-yl)acetamide] |
| – | – | 815 nM | < 1000 nM | Cc1cnc(NC(=O)Cn2nc(OC3CC4(C3)CC4(F)F)c3cc(Br)ccc3c2=O)nc1 (single isomer, unassigned) [Example 22, 2-[6-bromo-4-(2,2-difluorospiro[2.3]hexan-5-yl)oxy-1-oxophthalazin-2-yl]-N-(5-methylpyrimidin-2-yl)acetamide] |
| < 1000 nM | – | 33 nM | – | O=C(Cn1nc(OC2CC3(C2)CC3(F)F)c2cc(Br)ccc2c1=O)Nc1nc2ccccn2n1 (single isomer, unassigned) [Example 25, 2-[6-bromo-4-(2,2-difluorospiro[2.3]hexan-5-yl)oxy-1-oxophthalazin-2-yl]-N-([1,2,4]triazolo[1,5-a]pyridin-2-yl)acetamide] |
| – | – | 596 nM | < 1000 nM | O=C(Cn1nc(OC2CC3(C2)CC3(F)F)c2cc(Br)ccc2c1=O)Nc1nc2ccccn2n1 (single isomer, unassigned) [Example 26, 2-[6-bromo-4-(2,2-difluorospiro[2.3]hexan-5-yl)oxy-1-oxophthalazin-2-yl]-N-([1,2,4]triazolo[1,5-a]pyridin-2-yl)acetamide] |
| < 1000 nM | 368 nM | – | – | CC[C@@H]1CC1Oc1nn(CC(=O)Nc2ncc(F)cn2)c(=O)c2ccc(Br)cc12 (single isomer, unassigned) [Example 35, 2-[6-bromo-4-[cis-2-ethylcyclopropyl]oxy-1-oxophthalazin-2-yl]-N-(5-fluoropyrimidin-2-yl)acetamide] |
